Results: patent US12023345B2, “Compositions and methods for treating lysosomal disorders” (RUSH UNIVERSITY MEDICAL CENTER, priority 2014, dated 2024)

Assays:
Type in all cases: cell-based
[1] = system: Tfeb; test: TFEB protein by immunoblot in mouse primary astrocytes; settings: aspirin 2 and 5 μM, 12 h, serum-free
Method: Isolation of Primary Mouse Astroglia: Astroglia were isolated from mixed glial cultures as described (24, 25) according to the procedure of Giulian and Baker (26). Briefly, on day 9, the mixed glial cultures were washed three times with Dulbecco's modified Eagle's medium/F-12 and subjected to shaking at 240 rpm for 2 h at 37° C. on a rotary shaker to remove microglia. After 2 days, the shaking was repeated for 24 h for the removal of oligodendroglia and to ensure the complete removal of all nonastroglial cells. The attached cells were seeded onto new plates for further studies. Immunoblotting: Western blotting was conducted as described earlier (31, 32) with modifications. Briefly, cells were scraped in 1× RIPA buffer, protein was measured using Bradford reagent and sodium dodecyl sulfate (SDS) buffer was added and electrophoresed on NuPAGE® Novex® 4-12% Bis-Tris gels (Invitrogen) and proteins transferred onto a nitrocellulose membrane (Bio-Rad) using the Thermo-Pierce Fast Semi-Dry Blotter. The membrane was then washed for 15 min in TBS plus Tween 20 (TBST) and blocked for 1 hr in TBST containing BSA. […] Densitometric Analysis: Protein blots were analyzed using ImageJ (NIH, Bethesda, Md.) and bands were normalized to their respective β-actin loading controls. […]

[2] = system: Lamp2, Limp2 and Npc1; test: mRNA of lysosomal genes by real-time PCR in mouse primary astrocytes; settings: 5 μM aspirin, serum-free
Method: Quantitative Real-Time PCR: The mRNA quantification was performed using the ABIPrism7700 sequence detection system (Applied Biosystems, Foster City, CA) using SYBR Select master mix (Applied Biosystems). The mRNA expression of the targeted genes was normalized to the level of Gapdh mRNA and data was processed by the ABI Sequence Detection System 1.6 software.

[3] = system: Tfeb promoter (pTFEB-Luc); test: Tfeb promoter-driven luciferase reporter activity in mouse primary astrocytes; settings: p(WT)Tfeb-Luc, different doses of aspirin, 4 h
Description: Construction of Mouse Tfeb Promoter-driven Reporter Construct: Mouse genomic DNA isolated from primary mouse astrocytes was used as the template during PCR. The 5′ flanking sequence of the mouse TFEB (−916/+61) gene was isolated by PCR. Primers were designed from gene bank sequences. Tfeb: sense: 5′- acgcgt CCAGGAGCCAGGGACGGGGTACATCTC -3′ (SEQ ID NO.: 11); antisense: 5′- agatct AAGGAGAAACTGAGTCCGGGCAGAAGG -3′ (SEQ ID NO.: 12). The sense primer was tagged with an Mlu1 restriction enzyme site while the antisense primer was tagged with Bgl II. The PCR was performed using an Advantage-2 PCR kit (Clontech) according to the manufacturer's instruction. The resulting fragments were gel purified and ligated into the PGEM-TEasy vector (Promega). These fragments were further subcloned into the PGL-3 Enhancer vector after digestion with corresponding restriction enzymes and verification by sequencing ACGT Inc. DNA Sequencing Services. […]
Assay of Tfeb Promoter-driven Reporter Activity: Cells plated at 50-60% confluence in 12-well plates were cotransfected with 0.25 μg of pTFEB(WT)-Luc, pTFEB(Mu)-Luc and using Lipofectamine Plus (Invitrogen). […] Firefly luciferase activities were analyzed in cell extracts using the Luciferase Assay System kit (Promega) in a TD-20/20 Luminometer (Turner Designs) as described earlier (33, 34).

SMILES: CC(=O)Oc1ccccc1C(=O)O [aspirin]
- TFEB protein level (Western blot) [1]: able to increase the protein level of TFEB
- LAMP2 mRNA expression (real-time PCR), time course [2]: time-dependent increase in LAMP2 mRNA
- Tfeb promoter driven luciferase activity [3]: induced Tfeb promoter driven luciferase activity
